Test results as given in ChEMBL document CHEMBL1201862, “PubChem BioAssay data set” (2004).
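Following 48 hours of exposure in 96-well plates, responses at five concentrations were used to interpolate endpoints linearly. The concentration for 50% growth inhibition is given as GI50.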 Active and inactive are the calls of the source. Rule as the data show it: active = GI50 up to about 1.1 µM and inactive = higher.

Key:
Test in all cases: inhibition of tumour cell growth, NCI panel, 48 h
[1] = tested on: HCT-15
[2] = tested on: SK-MEL-28
[3] = tested on: KM12
[4] = tested on: CAKI-1
[5] = tested on: CCRF-CEM
[6] = tested on: DU-145
[7] = tested on: SK-MEL-5
[8] = tested on: PC-3
[9] = tested on: NCI-H522
[10] = tested on: NCI/ADR-RES
[11] = tested on: OVCAR-3
[12] = tested on: Hs-578T
[13] = tested on: RPMI-8226
[14] = tested on: HT-29
[15] = tested on: TK-10
[16] = tested on: MOLT-4
[17] = tested on: SR
[18] = tested on: UO-31
[19] = tested on: NCI-H460

| SMILES | GI50 [1] | GI50 [2] | GI50 [3] | GI50 [4] | GI50 [5] | GI50 [6] | GI50 [7] | GI50 [8] | GI50 [9] | GI50 [10] | GI50 [11] | GI50 [12] | GI50 [13] | GI50 [14] | GI50 [15] | GI50 [16] | GI50 [17] | GI50 [18] | GI50 [19] |
| --- | --- | --- | --- | --- | --- | --- | --- | --- | --- | --- | --- | --- | --- | --- | --- | --- | --- | --- | --- |
| O=c1[nH]c(Nc2cccc(C(F)(F)F)c2)nc2[nH]cnc12 | > 100 µM | > 100 µM (inactive) | > 100 µM (inactive) | > 100 µM (inactive) | > 100 µM (inactive) | > 100 µM (inactive) | 40.1 µM (inactive) | 75.2 µM (inactive) | 69.7 µM (inactive) | > 100 µM (inactive) | > 100 µM (inactive) | 75.7 µM (inactive) | > 100 µM (inactive) | 77.1 µM (inactive) | > 100 µM (inactive) | > 100 µM (inactive) | > 100 µM (inactive) |  |  |
| COc1cc(CNc2nc3ccccc3n2Cc2ccccc2)cc(CN2CCOCC2)c1O | 29.6 µM | 18.4 µM (inactive) | 34.8 µM (inactive) | 26.2 µM (inactive) | 28.3 µM (inactive) | 80.9 µM (inactive) | 18.6 µM (inactive) | 29.4 µM (inactive) | 32.4 µM (inactive) | 23 µM (inactive) | 20.6 µM (inactive) | 29.9 µM (inactive) | 91 µM (inactive) | 23.3 µM (inactive) | 23.9 µM (inactive) | 53.8 µM (inactive) |  | 18.2 µM (inactive) | 50.9 µM (inactive) |
| COC(=O)CCC(=O)c1ccc2c(c1)CC1(C2)Cc2ccc(C(=O)CCC(=O)OC)cc2C1 | > 100 µM |  | > 100 µM (inactive) |  | > 100 µM (inactive) |  | 17.3 µM (inactive) | 39.8 µM (inactive) | 55.1 µM (inactive) | 37.4 µM (inactive) | 61.2 µM (inactive) | > 100 µM (inactive) | 35.2 µM (inactive) | > 100 µM (inactive) | 82.6 µM (inactive) | 52 µM (inactive) | 17 µM (inactive) | 30.5 µM (inactive) |  |
| CC1(C)OC(=O)C(=Cc2ccc(O)cc2)C(=O)O1 | > 100 µM | > 100 µM (inactive) | > 100 µM (inactive) | > 100 µM (inactive) | > 100 µM (inactive) |  | > 100 µM (inactive) |  | > 100 µM (inactive) |  | > 100 µM (inactive) |  | > 100 µM (inactive) | > 100 µM (inactive) | > 100 µM (inactive) | > 100 µM (inactive) | > 100 µM (inactive) | > 100 µM (inactive) | > 100 µM (inactive) |
| NC(=O)N/N=C(/Cc1nc2ccc(C(=O)c3ccccc3)cc2nc1O)C(=O)Nc1ccc(C(F)(F)F)cc1[N+](=O)[O-] | 50.7 µM | > 100 µM (inactive) | 84.5 µM (inactive) | 42.8 µM (inactive) | 36.5 µM (inactive) |  | 56.2 µM (inactive) |  | 22.6 µM (inactive) |  | 43.4 µM (inactive) |  | 50.1 µM (inactive) | 57.4 µM (inactive) | > 100 µM (inactive) | 6.1 µM (inactive) | 45.4 µM (inactive) | 51.5 µM (inactive) | 65 µM (inactive) |
| COc1ccc(/C(C)=C2\CCCN(Cc3ccccc3)C2)cc1 | 20.3 µM | 22 µM (inactive) | 17 µM (inactive) | 22.6 µM (inactive) | 20.2 µM (inactive) | 34.6 µM (inactive) | 17.5 µM (inactive) | 23 µM (inactive) | 13.4 µM (inactive) | 22.6 µM (inactive) | 18.6 µM (inactive) | 13.5 µM (inactive) | 18.6 µM (inactive) | 18.9 µM (inactive) | 38.8 µM (inactive) | 24.4 µM (inactive) | 20.4 µM (inactive) | 19.9 µM (inactive) | 22.4 µM (inactive) |
| CCOC(=O)C(Cc1ccc2c(c1)CCC2)Cc1ccc2c(c1)CCC2 | > 100 µM | > 100 µM (inactive) |  | > 100 µM (inactive) | 27.1 µM (inactive) | > 100 µM (inactive) | 18.5 µM (inactive) | 38.9 µM (inactive) | 44.9 µM (inactive) | 73.1 µM (inactive) | > 100 µM (inactive) | > 100 µM (inactive) | 44.4 µM (inactive) | 45.9 µM (inactive) | > 100 µM (inactive) | 16.9 µM (inactive) | 25.1 µM (inactive) | 78 µM (inactive) | > 100 µM (inactive) |
| CC12C=C[C@]3(CC[C@@H]4[C@@](C)(CO)CCC[C@]4(C)C3CC1)C2 (some centres undefined) | 17 µM | 19.2 µM (inactive) | > 44.9 µM (inactive) | 12.8 µM (inactive) | 19.9 µM (inactive) |  |  |  | 11.5 µM (inactive) |  | 18.2 µM (inactive) |  | 17.9 µM (inactive) | 17.8 µM (inactive) | 20.1 µM (inactive) | 23.6 µM (inactive) | 16 µM (inactive) | 17.8 µM (inactive) | 21 µM (inactive) |
| Nc1ccc(/C=C/c2ccnc3ccccc23)cc1 | 21 µM | 32.4 µM (inactive) | 16.2 µM (inactive) | 21.9 µM (inactive) | 12.1 µM (inactive) |  | 15.2 µM (inactive) |  | 13.2 µM (inactive) |  | 15 µM (inactive) |  | 15.6 µM (inactive) | 23.4 µM (inactive) | 17.4 µM (inactive) | 7.76 µM (inactive) | 2.84 µM (inactive) | 16.5 µM (inactive) | 16.1 µM (inactive) |
| CC(=O)OCC1OC(n2cc(I)c(=O)[nH]c2=O)C(OC(C)=O)C(OC(C)=O)C1OC(C)=O (centres undefined) | > 100 µM | > 100 µM (inactive) | > 100 µM (inactive) | > 100 µM (inactive) | > 100 µM (inactive) |  | > 100 µM (inactive) |  | > 100 µM (inactive) |  | > 100 µM (inactive) |  | > 100 µM (inactive) | > 100 µM (inactive) | > 100 µM (inactive) | > 100 µM (inactive) | > 100 µM (inactive) | > 100 µM (inactive) | > 100 µM (inactive) |
| O=C(Nc1ccc(Cl)cc1)NS(=O)(=O)c1c(-c2ccccc2)oc2ccccc2c1=O | 50.6 µM | > 100 µM (inactive) | 36.2 µM (inactive) | 52.1 µM (inactive) | 33.9 µM (inactive) | 27.9 µM (inactive) | > 100 µM (inactive) | 56.8 µM (inactive) | 1.97 µM (inactive) | 86.3 µM (inactive) |  | > 100 µM (inactive) | 58.9 µM (inactive) | 57.8 µM (inactive) | 23 µM (inactive) | 98.6 µM (inactive) | 24.2 µM (inactive) | 38.5 µM (inactive) | 47.4 µM (inactive) |
| O=C(OC[C@H]1O[C@@H](OC(=O)c2cc(O)c(O)c(O)c2)[C@H](OC(=O)c2cc(O)c(O)c(O)c2)[C@@H](OC(=O)c2cc(O)c(O)c(O)c2)[C@@H]1OC(=O)c1cc(O)c(O)c(O)c1)c1cc(O)c(O)c(O)c1 [PENTAGALLOYL GLUCOSE] | 5.21 µM | 15.3 µM (inactive) | 2.34 µM (inactive) | 7.67 µM (inactive) | 3.33 µM (inactive) |  | 11.3 µM (inactive) |  | 3.46 µM (inactive) |  | 3.78 µM (inactive) |  | 2.76 µM (inactive) | 6.92 µM (inactive) | 4.88 µM (inactive) | 3 µM (inactive) | 4.13 µM (inactive) | 5.79 µM (inactive) | 3.27 µM (inactive) |
